Common to all, as to type: cell-based
One experiment addresses T1, TRPA1 (Homo sapiens, UniProt O75762).
T1 construct: host or cells: HEK TRex293
The experiment can be described thus: Bulk calcium assay (Fluo-4) in HEK cells overexpressing TRPA1. As to the method:
(§1) HEK TRexTRPV1 were cultured in DMEM, 10% Fetal Bovine Serum, 2 mM Lglutamine, 10 μg/ml Blasticidin (Calbiochem, San Diego Calif.), 400 μg/ml Zeocin (InvivoGen, San Diego Calif.), where indicated transgene expression was induced using 1 μg/ml Tetracycline for 16-24 hrs. Unless otherwise indicated, basal expression of TRPV1 without induction was sufficient for these studies, and comparisons were made to untransfected HEK where needed. HEKTRex293 over-expressing human TRPV2, human TRPA1 and human TRPM8 were obtained from SB Drug Discovery (Glasgow, Scotland) and cultured as described above. The cannabinoids and terpenes were assayed in HEK cells that have been transfected with the TRPV1 ion channel protein. These cells are called HEK293-V1 cells.
(§2) Cells were washed and incubated with 0.2 micromolar Fluo-4 for 30 minutes at 37° C. in a standard modified Ringer's solution of the following composition (in mM): NaCl 145, KCl 2.8, CsCl 10, CaCl2 10, MgCl2 2, glucose 10, Hepes·NaOH 10, pH 7.4, 330 mOsm. Cells were transferred to 96-well plates at 50,000 cells/well and stimulated as indicated. Calcium signals were acquired using a Flexstation 3 (Molecular Devices, Sunnydale, USA). Data was analyzed using SoftMax® Pro 5 (Molecular Devices). Where indicated, nomically calcium-free external conditions were achieved by the preparation of 0 mM CaCl2 Ringer solution containing 1 mM EGTA.
(§3) Calcium responses mediated by TRPA1, TRPM8, TRPV2, and TRPV1 were tested by calcium assay in the cell culture system. Cells were washed and incubated with 0.2 μM fluo-4 acetoxymethyl ester (“Fluo-4”) for 30 minutes at 37° C. in a standard modified Ringer's solution of the following composition (in mM): NaCl 145, KCl 2.8, CsCl 10, CaCl2 10, MgCl2 2, glucose 10, Hepes·NaOH 10, pH 7.4, 330 mOsm. Cells were transferred to 96-well plates at 50,000 cells/well and stimulated with 10 μM myrcene diluted in DMSO. Vehicle (DMSO) was used as a negative control. Vehicle traces were subtracted from the myrcene traces for each cell line.
(§4) The potential for different cannabinoids to target specific TRP channels, or to co-target more than one channel type, are of potential therapeutic options for the treatment and management of pain. Comparison of the impacts of a variety of cannabinoid on overexpression systems for TRPV2, TRPM8, and TRPA1 were performed in a side-by-side fashion, under bulk calcium assays where the measurements with each trace representing averaged triplicates of 100,000 cells per sample. As shown in FIGS. 41-43 and summarized in Table 3, there are clear differences in responsiveness between cannabinoids at a single channel type than between channel types to a given cannabinoid.

In another experiment the target is T2, TRPV1 (Rattus norvegicus, UniProt O35433).
T2 construct: FLAG; expressed in transfected cells
T2 sequence (O35433 whole entry): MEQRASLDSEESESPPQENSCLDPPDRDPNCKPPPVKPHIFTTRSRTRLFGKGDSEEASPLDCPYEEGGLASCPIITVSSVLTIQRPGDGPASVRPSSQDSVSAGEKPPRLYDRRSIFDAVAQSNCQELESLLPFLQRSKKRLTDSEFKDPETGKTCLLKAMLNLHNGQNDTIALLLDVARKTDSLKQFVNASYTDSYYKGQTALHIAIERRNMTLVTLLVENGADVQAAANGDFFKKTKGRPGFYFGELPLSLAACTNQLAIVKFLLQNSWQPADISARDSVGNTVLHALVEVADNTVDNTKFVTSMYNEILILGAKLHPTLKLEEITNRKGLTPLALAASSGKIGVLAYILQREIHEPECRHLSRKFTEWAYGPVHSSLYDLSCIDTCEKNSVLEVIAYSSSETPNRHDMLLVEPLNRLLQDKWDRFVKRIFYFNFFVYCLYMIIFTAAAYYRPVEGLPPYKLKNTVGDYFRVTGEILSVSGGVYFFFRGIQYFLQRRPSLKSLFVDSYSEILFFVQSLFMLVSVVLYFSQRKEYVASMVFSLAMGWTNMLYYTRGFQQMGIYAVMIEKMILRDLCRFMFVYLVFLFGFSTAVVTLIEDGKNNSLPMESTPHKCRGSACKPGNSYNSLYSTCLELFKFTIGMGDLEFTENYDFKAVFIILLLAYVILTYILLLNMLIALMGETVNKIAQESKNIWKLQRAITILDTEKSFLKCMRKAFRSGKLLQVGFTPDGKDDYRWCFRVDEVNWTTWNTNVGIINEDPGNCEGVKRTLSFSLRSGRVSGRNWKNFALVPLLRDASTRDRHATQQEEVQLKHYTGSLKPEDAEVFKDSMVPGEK
In words: Bulk calcium assay (Fluo-4) in HEK-TRPV1 overexpressing cells. The note with it: bulk calcium assay; TRPV1; mean (SD). How it is done: as §2
The cell culture system described in U.S. patent application Ser. No. 15/986,316 was used to test the TRPV1-mediated calcium response to various terpenes. The HEK293 cell line was stably transfected with the pcDNA6TR (Invitrogen, CA) plasmid (encoding the tetracycline-sensitive TREx repressor protein), and was maintained in DMEM+10% fetal bovine serum (inactivated at 55° C. for 1 h)+2 mM glutamine in humidified 5% CO2 atmosphere at 37° C. Selection pressure on the TRex 293 cells was maintained by continuous culture in 10 μg/ml Blasticidin (Sigma, St Louis, Mo.).
For production of TRex HEK293 cells with inducible expression of TRPV1, parental cells were electroporated with the rat TRPV1 cDNA in the pcDNA4TO vector and clonal cell lines were selected by limiting dilution in the presence of 400 μg/ml zeocin (Invitrogen, CA). TRPV1 expression was induced using 1 μg/ml tetracycline for 16 h at 37° C. Stable lines were screened for inducible protein expression using anti-FLAG Western blot, and inducible expression was confirmed.
Calcium responses mediated by TRPV1 were tested by calcium assay in the cell culture system. Cells were washed and incubated with 0.2 μM fluo-4 acetoxymethyl ester (“Fluo-4”) for 30 minutes at 37° C. in a standard modified Ringer's solution of the following composition (in mM): NaCl 145, KCl2.8, CsCl10, CaCl2 10, MgCl2 2, glucose 10, Hepes·NaOH 10, pH 7.4, 330 mOsm. Cells were transferred to 96-well plates at 50,000 cells/well and stimulated as indicated. The terpenes used were alpha-bisabool, alpha-pinene, myrcene, camphene, linalool, ocimene, humulene, beta-caryophyllene, beta-pinene, limonene, and nerolidol. The terpenes were diluted in DMSO and added to the wells to a final concentration of 10 μM. Vehicle (DMSO) alone was run as a negative control and subtracted from the terpene traces. Calcium signals were acquired using a Flexstation 3 (Molecular Devices, Sunnydale, USA). Data was analyzed using SoftMax® Pro 5 (Molecular Devices).
as §3
As shown in FIGS. 16A-H, a variety of cannabinoids were capable of initiating Ca^2+ fluxes in HEK-TRPV1 overexpressing cells, except for cannabigerol and cannabinol. Comparative responses to a single dose (10 μM concentration) of a variety of cannabinoids were made in the presence of 1 mM external Ca^2+, which are population-based, or bulk Ca^2+, measurements with each trace representing averaged triplicates of 100,000 cells per sample. […] For each of the cannabinoid compounds, dose responses at the population level were performed. […] The lower limit of detectable calcium responses in this system varied from 10-100 nM (CBDV, CBGA) to 1-10 μM.

The next experiment addresses T3, TRPV2 (Homo sapiens, UniProt Q9Y5S1).
T3 construct: host or cells: HEK TRex293
T3 sequence (Q9Y5S1 1-764): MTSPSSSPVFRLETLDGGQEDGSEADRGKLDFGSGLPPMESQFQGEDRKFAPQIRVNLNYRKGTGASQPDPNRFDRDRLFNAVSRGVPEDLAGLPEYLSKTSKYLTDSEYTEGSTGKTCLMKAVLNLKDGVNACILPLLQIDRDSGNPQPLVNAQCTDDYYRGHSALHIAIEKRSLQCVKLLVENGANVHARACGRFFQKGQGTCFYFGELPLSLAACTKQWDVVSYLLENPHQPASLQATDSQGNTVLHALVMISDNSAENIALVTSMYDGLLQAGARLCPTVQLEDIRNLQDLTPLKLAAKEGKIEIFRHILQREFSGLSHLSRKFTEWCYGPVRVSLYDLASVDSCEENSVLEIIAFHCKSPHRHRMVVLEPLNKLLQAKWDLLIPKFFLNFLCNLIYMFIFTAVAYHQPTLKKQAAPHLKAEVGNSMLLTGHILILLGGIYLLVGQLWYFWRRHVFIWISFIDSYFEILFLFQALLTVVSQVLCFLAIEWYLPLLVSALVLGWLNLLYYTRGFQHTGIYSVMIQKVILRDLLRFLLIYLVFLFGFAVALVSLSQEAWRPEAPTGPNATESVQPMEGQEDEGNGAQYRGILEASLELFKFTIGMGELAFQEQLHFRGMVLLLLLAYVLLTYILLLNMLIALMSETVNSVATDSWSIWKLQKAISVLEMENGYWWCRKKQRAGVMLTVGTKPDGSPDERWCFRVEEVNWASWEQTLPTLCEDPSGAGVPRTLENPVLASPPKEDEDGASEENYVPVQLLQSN
The experiment can be described thus: Bulk calcium assay (Fluo-4) in HEK cells overexpressing TRPV2. As to the method: as §1, §2, §3, §4

In a further experiment the target is T4, TRPM8 (Homo sapiens, UniProt Q7Z2W7).
T4 construct: host or cells: HEK TRex293
T4 sequence (Q7Z2W7 whole entry): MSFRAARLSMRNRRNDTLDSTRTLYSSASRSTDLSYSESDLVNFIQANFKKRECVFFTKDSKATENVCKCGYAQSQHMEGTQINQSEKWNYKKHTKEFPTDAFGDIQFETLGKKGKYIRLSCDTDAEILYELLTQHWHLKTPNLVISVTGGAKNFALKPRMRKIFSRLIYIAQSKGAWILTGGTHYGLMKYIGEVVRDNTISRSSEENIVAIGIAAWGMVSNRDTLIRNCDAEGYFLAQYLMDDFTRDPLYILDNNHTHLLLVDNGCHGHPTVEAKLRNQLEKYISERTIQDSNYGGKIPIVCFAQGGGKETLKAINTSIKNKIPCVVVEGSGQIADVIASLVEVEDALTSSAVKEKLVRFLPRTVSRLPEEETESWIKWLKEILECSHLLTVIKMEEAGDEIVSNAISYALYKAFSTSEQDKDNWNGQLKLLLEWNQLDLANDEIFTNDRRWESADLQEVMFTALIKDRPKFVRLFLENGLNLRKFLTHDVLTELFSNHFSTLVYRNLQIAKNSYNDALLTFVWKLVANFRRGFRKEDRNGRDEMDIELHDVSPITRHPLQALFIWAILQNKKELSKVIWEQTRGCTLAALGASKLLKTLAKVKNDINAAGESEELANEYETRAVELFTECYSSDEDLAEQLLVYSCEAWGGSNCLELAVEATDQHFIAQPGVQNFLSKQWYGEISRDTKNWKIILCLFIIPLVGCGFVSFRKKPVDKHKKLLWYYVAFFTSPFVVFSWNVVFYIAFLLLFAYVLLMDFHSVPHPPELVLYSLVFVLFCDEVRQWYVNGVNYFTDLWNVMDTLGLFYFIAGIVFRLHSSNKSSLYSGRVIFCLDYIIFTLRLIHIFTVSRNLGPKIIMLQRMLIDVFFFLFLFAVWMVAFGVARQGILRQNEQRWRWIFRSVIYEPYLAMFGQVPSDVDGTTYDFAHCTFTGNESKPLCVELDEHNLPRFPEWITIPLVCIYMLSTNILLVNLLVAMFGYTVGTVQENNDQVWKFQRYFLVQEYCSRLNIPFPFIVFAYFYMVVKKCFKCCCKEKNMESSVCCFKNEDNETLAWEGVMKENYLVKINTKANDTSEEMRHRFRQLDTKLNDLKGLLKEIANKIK
In words: Bulk calcium assay (Fluo-4) in HEK cells overexpressing TRPM8. As to the method: as §1, §2, §3, §4

For another experiment, the system named is WT HEK293. The experiment can be described thus: Bulk calcium assay in untransfected WT HEK293. The note with it: 10 μM, 1 mM external Ca2+.

SMILES strings stand for the structures.

T1 sequence (O75762 whole entry): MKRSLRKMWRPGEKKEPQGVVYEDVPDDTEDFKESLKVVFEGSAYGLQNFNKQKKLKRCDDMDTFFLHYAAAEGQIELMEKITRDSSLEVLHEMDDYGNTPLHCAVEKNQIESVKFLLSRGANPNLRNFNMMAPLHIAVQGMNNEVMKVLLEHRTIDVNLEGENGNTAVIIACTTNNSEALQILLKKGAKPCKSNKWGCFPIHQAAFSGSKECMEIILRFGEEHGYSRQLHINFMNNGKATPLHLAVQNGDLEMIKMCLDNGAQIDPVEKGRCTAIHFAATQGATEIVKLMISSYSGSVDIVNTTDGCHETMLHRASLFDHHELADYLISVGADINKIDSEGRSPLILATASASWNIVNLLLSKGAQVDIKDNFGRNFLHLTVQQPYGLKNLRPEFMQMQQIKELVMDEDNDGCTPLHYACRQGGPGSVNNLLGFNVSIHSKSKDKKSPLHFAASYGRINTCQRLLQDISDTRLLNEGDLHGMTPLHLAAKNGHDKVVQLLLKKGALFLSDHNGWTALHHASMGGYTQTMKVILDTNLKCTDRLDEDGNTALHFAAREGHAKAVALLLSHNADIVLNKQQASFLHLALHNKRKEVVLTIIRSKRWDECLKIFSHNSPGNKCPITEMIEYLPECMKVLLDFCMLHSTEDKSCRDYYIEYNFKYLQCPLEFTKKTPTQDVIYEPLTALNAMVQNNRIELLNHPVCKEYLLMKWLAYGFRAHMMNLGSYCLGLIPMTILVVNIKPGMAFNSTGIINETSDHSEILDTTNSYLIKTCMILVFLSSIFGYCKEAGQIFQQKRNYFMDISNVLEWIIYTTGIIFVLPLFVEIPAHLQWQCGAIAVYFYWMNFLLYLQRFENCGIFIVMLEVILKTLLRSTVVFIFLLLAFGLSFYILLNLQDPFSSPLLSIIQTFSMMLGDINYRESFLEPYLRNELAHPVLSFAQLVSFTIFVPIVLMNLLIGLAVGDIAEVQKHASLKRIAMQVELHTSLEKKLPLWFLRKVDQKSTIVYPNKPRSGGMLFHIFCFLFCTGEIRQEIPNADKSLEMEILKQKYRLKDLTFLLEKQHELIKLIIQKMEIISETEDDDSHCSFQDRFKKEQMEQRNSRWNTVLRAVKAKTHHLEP

For `CCCCCc1cc(O)c2c(c1)OC(C)(CCC=C(C)C)C=C2` (stereo not shown) [CBC, Cannabichromene], the “mean maximal Ca^2+ signal RFU achieved 0-180 s (SD), TRPA1” value on TRPA1 is listed as 15.13 (3.35) RFU. Moreover, the “mean maximal Ca^2+ signal RFU achieved 0-180 s (SD), TRPV1” value on TRPV1 is recorded as 3.23 (0.12) RFU; at TRPV2, 21.66 (1.89) RFU. Besides, the “mean maximal Ca^2+ signal RFU achieved 0-180 s (SD), TRM8” value on TRPM8 is on record as 0.97 (0.03) RFU.
On to `C=C(C)[C@@H]1CCC(C)=C[C@H]1c1c(O)cc(CCCCC)c(C(=O)O)c1O` [CBDA, Cannabidiolic Acid], for which the “mean maximal Ca^2+ signal RFU achieved 0-180 s (SD), TRPA1” value on TRPA1 was 10.09 (3.08) RFU. Besides, the “mean maximal Ca^2+ signal RFU achieved 0-180 s (SD), TRPV1” value was 4.62 (0.66) RFU at TRPV1 and 3.69 (1.2) RFU at TRPV2. In addition, the “mean maximal Ca^2+ signal RFU achieved 0-180 s (SD), TRM8” value at TRPM8 is 1.92 (0.04) RFU.
`CCCCCc1cc(O)c(C/C=C(\C)CCC=C(C)C)c(O)c1C(=O)O` [CBGA, Cannabigerolic Acid]: in the experiment with WT HEK293, the “calcium response of WT HEK293” value was “responding slightly”. In addition, the “mean maximal Ca^2+ signal RFU achieved 0-180 s (SD), TRPA1” value on TRPA1 was 3.65 (1.11) RFU. Besides, the entries for the “mean maximal Ca^2+ signal RFU achieved 0-180 s (SD), TRPV1” value at TRPV1 and at TRPV2 were 13.77 (0.31) RFU and 0.78 (0.02) RFU, respectively. For the same molecule, the “mean maximal Ca^2+ signal RFU achieved 0-180 s (SD), TRM8” value at TRPM8 is reported as 0.3 (0.01) RFU.

Source of the values: patent US20220387375A1, “TRPV1 ACTIVATION-MODULATING COMPLEX MIXTURES OF CANNABINOIDS AND/OR TERPENES” (GBS Global Biopharma, Inc., priority 2018, published 2022).
